We go through eight compounds from patent US3993765A, “1-Propyl-triazolyl antimycotic compositions and methods of treating mycoses” (Bayer Aktiengesellschaft, priority 1973, dated 1976).

The subject of assay [1] is Penicillium commune. The assay can be described thus: Antimycotic activity in vitro (series dilution test), Penicillium commune. The format is cell-based. The settings on record: growth no longer detectable, Sabourauds' milieu d'epreuve, 28° C, 24 to 96 hours, read-out: Minimum inhibitory concentration.
Assay [2] has as its system Trichophyton mentagrophytes. The assay can be described thus: Antimycotic activity in vitro (series dilution test), Trichophyton mentagrophytes. Type of assay: cell-based. Conditions: growth no longer detectable, Sabourauds' milieu d'epreuve, 28° C, 24 to 96 hours, read-out: Minimum inhibitory concentration.
Assay [3] concerns Candida albicans. The assay can be described thus: Antimycotic activity in vitro (series dilution test), Candida albicans. The format is cell-based. Conditions: growth no longer detectable, Sabourauds' milieu d'epreuve, 28° C, 24 to 96 hours, read-out: Minimum inhibitory concentration.
The subject of assay [4] is Candida. The assay can be described thus: Action in candidosis of mice. Conditions: mice SPF-CF1; 100 mg/kg orally one hour before and seven hours after i.v. infection; survivors on 6th day. Type of assay: in vivo. How it is done:
b. Candidosis of mice Mice of type SPF-CF1 were infected intravenously with 1-2 × 10^6 of logarithmically growing Candida cells which were suspended in physiological sodium chloride solution. One hour before and seven hours after the infection, the animals were treated orally, in each case with 100 mg of the preparations/kg of body weight. Untreated animals died of the infection 3 to 6 days after the infection. The survival rate on the 6th day after infection was about 5% in the case of untreated control animals.

In brackets after ≈: the same amount, converted by molar mass.

`CC(C)(C)C(O)C(Cn1cncn1)Oc1cccc(Cl)c1` (stereo not drawn): the MIC in assay [1], in assay [2] and in assay [3] was > 64 µg/mL in each case. `CC(C)(C)C(O)C(Cn1cncn1)Oc1ccc(Cl)cc1Cl` (stereo not drawn): the MIC in assay [1] was > 64 µg/mL; in assay [2], 4 µg/mL (≈ 11.6 µM). Turning to `Cc1cccc(OC(Cn2cncn2)C(O)C(C)(C)C)c1C` (stereo not drawn), the MIC in assay [1] and in assay [3] was 64 µg/mL (≈ 211 µM) in each case.

In the case of `CC(C)(C)C(O)C(Cn1cncn1)Oc1ccc(F)cc1` (stereo not drawn), the MIC in assay [1] and in assay [2] was 64 µg/mL (≈ 218 µM) each time.

Regarding `CC(C)(C)C(O)C(Cn1cncn1)Oc1ccccc1Cl` (stereo not drawn) [Example 4], the “Action in candidosis of mice” value in assay [4] is listed as “++++ (good action = 80% survivors on the 6th day after infection)”.

Take `CC(C)(C)C(O)C(Cn1cncn1)Oc1cc(Cl)ccc1Cl` (stereo not drawn) [Example 7]: the “Action in candidosis of mice” value in assay [4] is on record as “++++ (good action = 80% survivors on the 6th day after infection)”. Regarding `CC(C)(C)C(O)C(Cn1cncn1)Oc1ccccc1Cl` (stereo not drawn) [drawing 4], the MIC in assay [1] was > 64 µg/mL; in assay [2], 32 µg/mL (≈ 103 µM). On to `CC(C)(C)C(O)C(Cn1cncn1)Oc1cc(Cl)ccc1Cl` (stereo not drawn) [drawing 6], for which the MIC in assay [1] is > 64 µg/mL; in assay [2], 32 µg/mL (≈ 93 µM).
